Experimental data from US20260216294A1, “BETA 2-ADRENERGIC RECEPTOR AGONISTS FOR TREATMENT OR PREVENTION OF MUSCLE WASTING” (ATROGI AB, priority 2023, published 2026).

Experiments:
L6-myotubes [1] = test: Glucose uptake in differentiated L6-myotubes (Biological Example 2); format: cell-based; details: read-out: Biological example 2 (GU)
Outline: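 Differentiated L6 myotubes were serum-starved overnight in 0.5% fatty-acid-free BSA and then stimulated with compound or isoprenaline at 1×10^−5 M final. After 1 h 40 min cells were washed and re-dosed in glucose-free medium. Twenty minutes later, uptake of 50 nM ^3H-2-deoxyglucose over 10 min was measured by scintillation counting of NaOH lysates.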

L6-myotubes [2] = test: Measurement of intracellular cAMP levels in differentiated L6-myotubes (Biological Example 3); format: cell-based; details: 0.25 h
Outline: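 Serum-starved differentiated L6 myotubes stimulated 15 min with test compound at 1×10^−5 M final (isoprenaline as reference) in HBSS with 1% BSA, 5 mM HEPES, 1 mM IBMX, pH 7.4. Cells EtOH-extracted, lysed, and intracellular cAMP measured by AlphaScreen.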

[3] = glucose uptake in differentiated L6-myotubes, compound at 10 μM, activity relative to isoproterenol at 10 μM
[4] = intracellular cAMP in differentiated L6-myotubes, compound at 10 μM, activity relative to isoproterenol at 10 μM
[5] = glucose uptake, compound at 10 μM relative to isoproterenol at 10 μM
[6] = intracellular cAMP, compound at 10 μM relative to isoproterenol at 10 μM

| SMILES | Emax at 10 µM (L6-myotubes [1]; [3]) [%] | Emax at 10 µM (L6-myotubes [2]; [4]) [%] | Emax at 10 µM (L6-myotubes [1]; [5]) [%] | Emax at 10 µM (L6-myotubes [2]; [6]) [%] |
| --- | --- | --- | --- | --- |
| CC(=O)N(Cc1ccccc1)[C@H]1CC[C@H](C[C@@H]2CC[C@H]([C@@H](O)c3cccc(F)c3)N2)CC1 [Compound 481, N-[(1S,4r)-4-({(2S,5R)-5-[(S)-(m-fluorophenyl) hydroxymethyl]-2-pyrrolidinyl}methyl)cyclohexyl]-N-benzylacetamide] | < 25 | < 25 |  |  |
| CC1(C)CC[C@@H]([C@H](O)c2cccc(F)c2)N1 [Compound 144] |  |  | < 25 | < 25 |
| CC1(C)CCC[C@@H]([C@@H](O)c2cccc(F)c2)N1 [Compound 191] |  |  | 25 to 50 | < 25 |
| COC(=O)[C@H]1CC[C@@H](CCC(C)(C)NC[C@H](O)c2cccc(F)c2)CC1 [Compound 351, methyl (1S,4s)-4-{3-[(R)-2-(m-fluorophenyl)-2-hydroxyethylamino]-3-methylbutyl} cyclohexanecarboxylate] | > 75 | 25 to 50 |  |  |
| Oc1ccc(C(O)CNC23CC4CC(CC(C4)C2)C3)cc1 (stereo not drawn) [Compound 11, p-[2-(1-adamantanylamino)-1-hydroxyethyl]phenol] |  |  | 25 to 50 | < 25 |
| CO[C@@H]1CCC[C@H](C(C)(C)NC[C@H](O)c2cccc(F)c2)C1 [Compound 255, (R)-2-{1-[(1S,3R)-3-methoxycyclohexyl]-1-methylethylamino}-1-(m-fluorophenyl)-1-ethanol] | > 75 | < 25 |  |  |
| CC(C)(NC[C@H](O)c1cccc(F)c1)[C@H]1CC[C@H](NS(C)(=O)=O)CC1 [Compound 385, (R)-1-(m-fluorophenyl)-2-{1-methyl-1-[(1r,4R)-4-(mesylamino)cyclohexyl]ethylamino}-1-ethanol] | 50 to 75 | < 25 |  |  |
| O[C@@H](CNCCC[C@H]1CC[C@@H](O)CC1)c1cncc(F)c1 [Compound 304, (R)-1-(5-fluoro-3-pyridyl)-2-{3-[(1s,4R)-4-hydroxycyclohexyl]propylamino}-1-ethanol] | 50 to 75 | < 25 |  |  |
| O=C(N[C@H]1CC[C@@H](CNC[C@H](O)c2cncc(F)c2)CC1)c1ccccc1 [Compound 318] | 50 to 75 | < 25 |  |  |
| O[C@H](c1cccc(F)c1)C12CCC(CCCc3ccccc3)(CC1)N2 [Compound 536, (R)-(m-fluorophenyl){4-(3-phenylpropyl)-7-azabicyclo[[2.2.1]]hept-1-yl}methanol] | > 75 | 25 to 50 |  |  |
| CC12CC(C1)[C@@H]([C@@H](O)c1cccc(Cl)c1)N2 [Compound 207] | 25 to 50 | < 25 |  |  |
| CC(=O)N(Cc1ccccc1)[C@H]1CC[C@H](C[C@@H]2CC[C@H]([C@H](O)c3cccc(F)c3)N2)CC1 [Compound 482, N-[(1S,4r)-4-({(2S,5R)-5-[(R)-(m-fluorophenyl) hydroxymethyl]-2-pyrrolidinyl}methyl)cyclohexyl]-N-benzylacetamide] | < 25 | < 25 |  |  |
| CCC[C@H]1CCC[C@H]([C@@H](O)c2cncc(F)c2)N1 [Compound 139] |  |  | < 25 | < 25 |
| CS(=O)(=O)N[C@H]1CC[C@@H](C[C@@H]2CC[C@H]([C@@H](O)c3cccc(F)c3)N2)CC1 [Compound 511] | 25 to 50 | < 25 |  |  |
| CC(C)(NC[C@H](O)c1cncc(F)c1)[C@H]1CC[C@H](OCC(=O)O)CC1 [Compound 419] | 50 to 75 | < 25 |  |  |
| CC(=O)N[C@H]1CC[C@@H](CC(C)(C)NC[C@H](O)c2cncc(F)c2)CC1 [Compound 467] | > 75 | < 25 |  |  |
| CC1(C)CC[C@H]([C@@H](O)c2ccc(F)cc2)N1 [Compound 172] |  |  | < 25 | < 25 |
| CO[C@@H]1CCC[C@H](C(C)(C)NC[C@H](O)c2cncc(F)c2)C1 [Compound 257, (R)-2-{1-[(1S,3R)-3-methoxycyclohexyl]-1-methylethylamino}-1-(5-fluoro-3-pyridyl)-1-ethanol] | 50 to 75 | < 25 |  |  |
| O[C@@H](c1cccc(F)c1)[C@H]1CC[C@H](Cc2ccc(Cl)cc2)N1 [Compound 394, (S)-{(2R,5R)-5-[(p-chlorophenyl)methyl]-2-pyrrolidinyl}(m-fluorophenyl)methanol] | 50 to 75 | < 25 |  |  |
| CC(C)(C[C@H]1CC[C@@H](N)CC1)NC[C@H](O)c1cccc(C#N)n1 [Compound 418, 6-[(S)-2-{1,1-dimethyl-2-[(1s,4R)-4-aminocyclohexyl]ethylamino}-1-hydroxyethyl]-2-pyridinecarbonitrile] | 50 to 75 | < 25 |  |  |

| SMILES | Emax at 10 µM (L6-myotubes [1]; [3]) [%] | Emax at 10 µM (L6-myotubes [2]; [4]) [%] | Emax at 10 µM (L6-myotubes [1]; [5]) [%] | Emax at 10 µM (L6-myotubes [2]; [6]) [%] |
| --- | --- | --- | --- | --- |
| CO[C@H]1CC[C@H](CNC[C@H](O)c2cccc(F)c2)CC1 [Compound 228, (R)-1-(m-fluorophenyl)-2-({[(1r,4R)-4-methoxycyclohexyl]methyl}amino)-1-ethanol] | 50 to 75 | < 25 |  |  |
| CO[C@H]1CC[C@H](CCCNC[C@H](O)c2cccc(F)c2)CC1 [Compound 259, (R)-1-(m-fluorophenyl)-2-{3-[(1r,4S)-4-methoxycyclohexyl]propylamino}-1-ethanol] | 25 to 50 | < 25 |  |  |
| CCCC(C)NCC(O)c1cc(Cl)c(N)c(Cl)c1 (stereo not drawn) [Compound 22, 1-(4-amino-3,5-dichlorophenyl)-2-(1-methylbutylamino)-1-ethanol] |  |  | > 75 | 50 to 75 |
| COC(=O)[C@H]1CC[C@H](CCC(C)(C)NC[C@H](O)c2cccc(F)c2)CC1 [Compound 350, methyl (1R,4r)-4-{3-[(R)-2-(m-fluorophenyl)-2-hydroxyethylamino]-3-methylbutyl} cyclohexanecarboxylate] | > 75 | < 25 |  |  |
| O[C@H](c1cccc(F)c1)[C@H]1CCC2(CCCC2)N1 [Compound 168] |  |  | 50 to 75 | 25 to 50 |
| CC12CC(C1)[C@H]([C@@H](O)c1cccc(F)c1)N2 [Compound 187] |  |  | 25 to 50 | < 25 |
| O[C@H](c1cncc(F)c1)C12CCC(CCCc3ccccc3)(CC1)N2 [Compound 532, (R)-(5-fluoro-3-pyridyl){4-(3-phenylpropyl)-7-azabicyclo[[2.2.1]]hept-1-yl}methanol] | 50 to 75 | 25 to 50 |  |  |
| O[C@@H](CNCCC[C@H]1CC[C@H](OCc2ccccc2)CC1)c1cccc(F)c1 [Compound 278, (R)-1-(m-fluorophenyl)-2-{3-[(1r,4S)-4-(benzyloxy)cyclohexyl]propylamino}-1-ethanol] | 25 to 50 | < 25 |  |  |
| CC(C)(C)CNC[C@H](O)c1cccc(F)c1 [Compound 117, (R)-1-(m-fluorophenyl)-2-(neopentylamino)-1-ethanol] |  |  | 25 to 50 | < 25 |
| CCC[C@H]1CCC[C@H]([C@@H](O)c2cc(F)cc(F)c2)N1 [Compound 66] |  |  | 25 to 50 | < 25 |
| CC(C)(C[C@H]1CC[C@H](O)CC1)NC[C@H](O)c1cccc(F)c1 [Compound 300, (R)-2-{1,1-dimethyl-2-[(1r,4R)-4-hydroxycyclohexyl]ethylamino}-1-(m-fluorophenyl)-1-ethanol] | > 75 | < 25 |  |  |
| O[C@@H](CNCC[C@H]1CC[C@@H](O)CC1)c1cncc(F)c1 [Compound 293, (R)-1-(5-fluoro-3-pyridyl)-2-{2-[(1s,4S)-4-hydroxycyclohexyl]ethylamino}-1-ethanol] | 25 to 50 | < 25 |  |  |
| CC(C)(C)NC[C@H](O)c1ccccc1F [Compound 78, (R)-2-(tert-butylamino)-1-(o-fluorophenyl)-1-ethanol] |  |  | > 75 | 25 to 50 |
| CC(C)(CC[C@H]1CC[C@H](O)CC1)NC[C@H](O)c1cncc(F)c1 [Compound 289, (R)-2-{1,1-dimethyl-3-[(1r,4S)-4-hydroxycyclohexyl]propylamino}-1-(5-fluoro-3-pyridyl)-1-ethanol] | 25 to 50 | < 25 |  |  |
| CO[C@H]1CCC[C@@H](C(C)(C)NC[C@H](O)c2cccc(F)c2)C1 [Compound 256, (R)-2-{1-[(1R,3S)-3-methoxycyclohexyl]-1-methylethylamino}-1-(m-fluorophenyl)-1-ethanol] | > 75 | 25 to 50 |  |  |
| CCOC(=O)CO[C@H]1CC[C@H](C(C)(C)NC[C@H](O)c2cncc(F)c2)CC1 [Compound 409, ethyl[[(1R,4r)-4-{1-[(R)-2-(5-fluoro-3-pyridyl)-2-hydroxyethylamino]-1-methylethyl}cyclohexyloxy]]acetate] | > 75 | < 25 |  |  |
| CC(C)(C[C@H]1CC[C@H](NS(C)(=O)=O)CC1)NC[C@H](O)c1cccc(C#N)n1 [Compound 426, 6-[(S)-2-{1,1-dimethyl-2-[(1r,4S)-4-(mesylamino)cyclohexyl]ethylamino}-1-hydroxyethyl]-2-pyridinecarbonitrile] | > 75 | < 25 |  |  |
| O=C(N[C@H]1CC[C@@H](CNC[C@H](O)c2cccc(F)c2)CC1)c1ccccc1 [Compound 316] | 50 to 75 | < 25 |  |  |
| O[C@H](c1cccc(F)c1)C12CCC(COc3ccc(Cl)cc3)(CC1)N2 [Compound 441, (R)-{4-[(p-chlorophenoxy)methyl]-7-azabicyclo[[2.2.1]]hept-1-yl}(m-fluorophenyl)methanol] | > 75 | < 25 |  |  |
